We go through 20 molecules from US8324248B2, “Piperidine derivatives as NK3 receptor antagonists” (Hoffmann-La Roche Inc., priority 2009, dated 2012).

The Ki is the dissociation constant of the complex between target and ligand, obtained from inhibition or displacement.

The target in this assay is T1, recombinant human NK3 receptor (Homo sapiens, UniProt P29371).
T1 construct: expressed in transfected cells; host or cells: HEK293 cells (transient expression), membranes
T1 sequence (P29371 1-465): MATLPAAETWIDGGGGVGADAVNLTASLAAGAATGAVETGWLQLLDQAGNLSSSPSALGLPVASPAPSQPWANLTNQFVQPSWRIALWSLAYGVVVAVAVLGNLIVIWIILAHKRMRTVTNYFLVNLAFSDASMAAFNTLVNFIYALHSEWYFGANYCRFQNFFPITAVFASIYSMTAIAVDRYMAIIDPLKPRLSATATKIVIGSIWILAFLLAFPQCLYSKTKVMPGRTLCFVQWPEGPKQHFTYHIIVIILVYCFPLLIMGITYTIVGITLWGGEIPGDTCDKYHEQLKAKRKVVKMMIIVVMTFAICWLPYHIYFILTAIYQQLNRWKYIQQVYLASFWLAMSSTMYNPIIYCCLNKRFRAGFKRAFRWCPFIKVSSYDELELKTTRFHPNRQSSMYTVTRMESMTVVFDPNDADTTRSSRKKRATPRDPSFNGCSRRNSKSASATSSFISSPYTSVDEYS
Description: [3H]SR142801 competition binding assay, hNK3 receptor binding. The note with it: [3H]SR142801 displacement; membranes from HEK293 cells transiently expressing recombinant human NK3 receptor; Ki by Cheng-Prussoff from IC50. Here is the method: The compounds were investigated in accordance with the tests given hereinafter. [^3H]SR142801 competition binding assay hNK3 receptor binding experiment were performed using [^3H]SR142801 (Catalog No. TRK1035, specific activity: 74.0 Ci/mmol, Amersham, GE Healthcare UK limited, Buckinghamshire, UK) and membrane isolated from HEK293 cells transiently expressing recombinant human NK3 receptor. After thawing, the membrane homogenates were centrifuged at 48,000×g for 10 min at 4° C., the pellets were resuspended in the 50 mM Tris-HCl, 4 mM MnCl2, 1 μM phosphoramidon, 0.1% BSA binding buffer at pH 7.4 to a final assay concentration of 5 μg protein/well. For inhibition experiments, membranes were incubated with [^3H]SR142801 at a concentration equal to KD value of radioligand and 10 concentrations of the inhibitory compound (0.0003-10 μM) (in a total reaction volume of 500 μl) for 75 min at room temperature (RT). At the end of the incubation, membranes were filtered onto unitfilter (96-well white microplate with bonded GF/C filter preincubated 1 h in 0.3% PEI+0.3% BSA, Packard BioScience, Meriden, Conn.) with a Filtermate 196 harvester (Packard BioScience) and washed 4 times with ice-cold 50 mM Tris-HCl, pH 7.4 buffer. Nonspecific binding was measured in the presence of 10 μM SB222200 for both radioligands. The radioactivity on the filter was counted (5 min) on a Packard Top-count microplate scintillation counter with quenching correction after addition of 45 μl of microscint 40 (Can berra Packard S. A., Zürich, Switzerland) and shaking for 1 h. Inhibition curves were fitted according to the Hill equation: y=100/(1+(x/IC50)^nH), where nH=slope factor using Excel-fit 4 software (Microsoft). IC50 values were derived from the inhibition curve and the affinity constant (Ki) values were calculated using the Cheng-Prussoff equation Ki=IC50/(1+[L]/KD) where [L] is the concentration of radioligand and KD is its dissociation constant at the receptor, derived from the saturation isotherm. All experiments were performed in duplicate and the mean±standard error (SEM) of the individual Ki values was calculated.
With `CC(Nc1ccc(C#N)cn1)[C@H]1CCN(C(=O)C2CCN(c3ccc(C#N)cn3)CC2)C[C@@H]1c1ccc(Cl)cc1` (mixture of isomers) [Example 68, 4-{(3S,4S)-3-(4-Chloro-phenyl)-4-[(SR)-1-(5-cyano-pyridin-2-ylamino)-ethyl]-piperidine-1-carbonyl}-3,4,5,6-tetrahydro-2H-[1,2′]bipyridinyl-5′-carbonitrile], the Ki was determined as 1.4 nM. For `C[C@H](Oc1ccc(Cl)cn1)[C@H]1CCN(C(=O)C2CCN(C(=O)C3(C)CC3)CC2)C[C@@H]1c1ccc(Cl)cc1` (racemic) [Example 5, (4-{(3SR, 4SR)-3-(4-Chloro-phenyl)-4-[(SR)-1-(5-chloro-pyridin-2-yloxy)-ethyl]-piperidine-1-carbonyl}-piperidin-1-yl)-(1-methyl-cyclopropyl)-methanone], the Ki stood at 4.1 nM. For the molecule `Cc1noc(-c2ccc(C(=O)N3CC[C@H](COc4ccc(Cl)cn4)[C@@H](c4ccc(F)c(F)c4)C3)cc2)n1` (racemic) [Example 31, [(3SR,4SR)-4-(5-Chloro-pyridin-2-yloxymethyl)-3-(3,4-difluoro-phenyl)-piperidin-1-yl]-[4-(3-methyl-[1,2,4]oxadiazol-5-yl)-phenyl]-methanone], the Ki is 8.3 nM.

Consider `CC1(C(=O)N2CCC(C(=O)N3CC[C@H](COc4ccc(Cl)cn4)[C@@H](c4ccc(F)c(F)c4)C3)CC2)CC1` (racemic) [Example 32, {4-[(3SR,4SR)-4-(5-Chloro-pyridin-2-yloxymethyl)-3-(3,4-difluoro-phenyl)-piperidine-1-carbonyl]-piperidin-1-yl}-(1-methyl-cyclopropyl)-methanone], for which the Ki came out at 5.8 nM. `N#Cc1ccc(N2CCC(C(=O)N3CC[C@H](COc4ccc(Cl)cn4)[C@@H](c4ccc(F)c(F)c4)C3)CC2)nc1` (relative stereo) [Example 33]: the inhibition constant Ki is 1.3 nM. `C[C@H](Oc1ccc(Cl)cn1)[C@H]1CCN(C(=O)C2CCN(C(=O)C3(C)CC3)CC2)C[C@@H]1c1ccc(Cl)cc1` (stereo in doubt) [Example 7, (4-{(3S,4S)-3-(4-Chloro-phenyl)-4-[(S)-1-(5-chloro-pyridin-2-yloxy)-ethyl]-piperidine-1-carbonyl}-piperidin-1-yl)-(1-methyl-cyclopropyl)-methanone]: the Ki is 2.6 nM. Regarding `Cc1cc(C(=O)N2CC[C@H]([C@H](C)Oc3ccc(Cl)cn3)[C@@H](c3ccc(Cl)cc3)C2)cnn1` [Example 10, {(3S,4S)-3-(4-Chloro-phenyl)-4-[(S)-1-(5-chloro-pyridin-2-yloxy)-ethyl]-piperidin-1-yl}-(6-methyl-pyridazin-4-yl)-methanone], the Ki came to 3.6 nM. In the case of `Cc1noc(-c2ccc(C(=O)N3CC[C@H]([C@H](C)Oc4ccc(Cl)cn4)[C@@H](c4ccc(Cl)cc4)C3)cc2)n1` [Example 11, {(3S,4S)-3-(4-Chloro-phenyl)-4-[(S)-1-(5-chloro-pyridin-2-yloxy)-ethyl]-piperidin-1-yl}-[4-(3-methyl-[1,2,4]oxadiazol-5-yl)-phenyl]-methanone], the Ki turned out to be 1.8 nM. As for `Cc1nc(-c2ccc(C(=O)N3CC[C@H]([C@H](C)Oc4ccc(Cl)cn4)[C@@H](c4ccc(Cl)cc4)C3)cc2)no1` [Example 12, {(3S,4S)-3-(4-Chloro-phenyl)-4-[(S)-1-(5-chloro-pyridin-2-yloxy)-ethyl]-piperidin-1-yl}-[4-(5-methyl-[1,2,4]oxadiazol-3-yl)-phenyl]-methanone], the Ki is 2.3 nM. `C[C@H](Oc1ccc(Cl)cn1)[C@H]1CCN(C(=O)C2CCN(c3ccc(C#N)cn3)CC2)C[C@@H]1c1ccc(Cl)cc1` [Example 13, 4-{(3S,4S)-3-(4-Chloro-phenyl)-4-[(S)-1-(5-chloro-pyridin-2-yloxy)-ethyl]-piperidine-1-carbonyl}-3,4,5,6-tetrahydro-2H-[1,2′]bipyridinyl-5′-carbonitrile]: the Ki turned out to be 0.3 nM. For the molecule `C[C@H](Oc1ccc(Cl)cn1)[C@H]1CCN(C(=O)N2CCN(S(C)(=O)=O)CC2)C[C@@H]1c1ccc(Cl)cc1` [Example 14, {(3S,4S)-3-(4-Chloro-phenyl)-4-[(S)-1-(5-chloro-pyridin-2-yloxy)-ethyl]-piperidin-1-yl}-(4-methanesulfonyl-piperazin-1-yl)-methanone], the Ki was 2.6 nM. Take `C[C@H](Oc1ccc(C(F)(F)F)cn1)[C@H]1CCN(C(=O)C2CCN(C(=O)C3(C)CC3)CC2)C[C@@H]1c1ccc(Cl)cc1` [Example 16, (4-{(3S,4S)-3-(4-Chloro-phenyl)-4-[(S)-1-(5-trifluoromethyl-pyridin-2-yloxy)-ethyl]-piperidine-1-carbonyl}-piperidin-1-yl)-(1-methyl-cyclopropyl)-methanone]: the Ki came to 1.6 nM. Then `Cc1cc(C(=O)N2CC[C@H]([C@H](C)Oc3ccc(C(F)(F)F)cn3)[C@@H](c3ccc(Cl)cc3)C2)cnn1` [Example 17, {(3S,4S)-3-(4-Chloro-phenyl)-4-[(S)-1-(5-trifluoromethyl-pyridin-2-yloxy)-ethyl]-piperidin-1-yl}-(6-methyl-pyridazin-4-yl)-methanone], with 5.6 nM; and `Cc1noc(-c2ccc(C(=O)N3CC[C@H]([C@H](C)Oc4ccc(C(F)(F)F)cn4)[C@@H](c4ccc(Cl)cc4)C3)cc2)n1` [Example 18, {(3S,4S)-3-(4-Chloro-phenyl)-4-[(S)-1-(5-trifluoromethyl-pyridin-2-yloxy)-ethyl]-piperidin-1-yl}-[4-(3-methyl-[1,2,4]oxadiazol-5-yl)-phenyl]-methanone], with 1.2 nM. As for `Cc1nc(-c2ccc(C(=O)N3CC[C@H]([C@H](C)Oc4ccc(C(F)(F)F)cn4)[C@@H](c4ccc(Cl)cc4)C3)cc2)no1` [Example 19, {(3S,4S)-3-(4-Chloro-phenyl)-4-[(S)-1-(5-trifluoromethyl-pyridin-2-yloxy)-ethyl]-piperidin-1-yl}-[4-(5-methyl-[1,2,4]oxadiazol-3-yl)-phenyl]-methanone], the Ki was 1.4 nM. Regarding `C[C@H](Oc1ccc(C(F)(F)F)cn1)[C@H]1CCN(C(=O)C2CCN(c3ccc(C#N)cn3)CC2)C[C@@H]1c1ccc(Cl)cc1` [Example 20, 4-{(3S,4S)-3-(4-Chloro-phenyl)-4-[(S)-1-(5-trifluoromethyl-pyridin-2-yloxy)-ethyl]-piperidine-1-carbonyl}-3,4,5,6-tetrahydro-2H-[1,2′]bipyridinyl-5′-carbonitrile], the Ki was found to be 0.2 nM.

As to `C[C@H](Oc1ccc(C(F)(F)F)cn1)[C@H]1CCN(C(=O)N2CCN(S(C)(=O)=O)CC2)C[C@@H]1c1ccc(Cl)cc1` [Example 21, {(3S,4S)-3-(4-Chloro-phenyl)-4-[(S)-1-(5-trifluoromethyl-pyridin-2-yloxy)-ethyl]-piperidin-1-yl}-(4-methanesulfonyl-piperazin-1-yl)-methanone], the Ki worked out at 4.7 nM. Then `C[C@H](Oc1ccc(C#N)cn1)[C@H]1CCN(C(=O)C2CCN(C(=O)C3(C)CC3)CC2)C[C@@H]1c1ccc(Cl)cc1` [Example 23, 6-((S)-1-{(3S,4S)-3-(4-Chloro-phenyl)-1-[1-(1-methyl-cyclopropanecarbonyl)-piperidine-4-carbonyl]-piperidin-4-yl}-ethoxy)-nicotinonitrile], with 1.1 nM; and `Cc1cc(C(=O)N2CC[C@H]([C@H](C)Oc3ccc(C#N)cn3)[C@@H](c3ccc(Cl)cc3)C2)cnn1` [Example 24, 6-{(S)-1-[(3S,4S)-3-(4-Chloro-phenyl)-1-(6-methyl-pyridazine-4-carbonyl)-piperidin-4-yl]-ethoxy}-nicotinonitrile], with 8.7 nM; and `Cc1noc(-c2ccc(C(=O)N3CC[C@H]([C@H](C)Oc4ccc(C#N)cn4)[C@@H](c4ccc(Cl)cc4)C3)cc2)n1` [Example 25, 6-((S)-1-{(3S,4S)-3-(4-Chloro-phenyl)-1-[4-(3-methyl-[1,2,4]oxadiazol-5-yl)-benzoyl]-piperidin-4-yl}-ethoxy)-nicotinonitrile], with 1.5 nM.
